The NIST ThermoML archive (doi:10.1021/je100598x)

Test: cn = amount concentration of the nth substance listed, in mol/dm3
Settings: 101 kPa, Liquid, Direct current cell with electrodes

CCCCCCCCCCCC[N+](CCCC)(CCCC)CCCC.[Br-] [dodecyltributylammonium bromide] + O
electrical conductivity [S/m]
Settings | 288.15 K | 293.15 K | 298.15 K | 303.15 K | 308.15 K | 313.15 K | 318.15 K
c1 = 0.000658 | 0.005218 | 0.00579 | 0.00649 | 0.007326 | 0.00785 | 0.008542 | 0.00923
c1 = 0.001299 | 0.009805 | 0.01101 | 0.01226 | 0.0138 | 0.01502 | 0.01631 | 0.0177
c1 = 0.001923 | 0.01419 | 0.01604 | 0.0179 | 0.0201 | 0.0218 | 0.0238 | 0.0258
c1 = 0.002532 | 0.01845 | 0.0208 | 0.0233 | 0.0262 | 0.0283 | 0.0309 | 0.0336
c1 = 0.003125 | 0.0226 | 0.0254 | 0.0287 | 0.0319 | 0.0346 | 0.0378 | 0.0412
c1 = 0.003704 | 0.0265 | 0.03 | 0.0335 | 0.0374 | 0.0407 | 0.0445 | 0.0484
c1 = 0.004268 | 0.0303 | 0.0341 | 0.0383 | 0.0427 | 0.0465 | 0.0509 | 0.0551
c1 = 0.004819 | 0.034 | 0.0384 | 0.0429 | 0.0476 | 0.0517 | 0.0566 | 0.0619
c1 = 0.005357 | 0.0377 | 0.0423 | 0.0472 | 0.052 | 0.0567 | 0.0619 | 0.0672
c1 = 0.005882 | 0.041 | 0.0459 | 0.0508 | 0.0554 | 0.0599 | 0.0658 | 0.0712
c1 = 0.006395 | 0.0441 | 0.0487 | 0.0532 | 0.0578 | 0.0629 | 0.069 | 0.0752
c1 = 0.006896 | 0.0466 | 0.0509 | 0.0556 | 0.0601 | 0.0658 | 0.072 | 0.0785
c1 = 0.007386 | 0.0485 | 0.0524 | 0.0575 | 0.0626 | 0.0678 | 0.0747 | 0.0817
c1 = 0.007865 | 0.05 | 0.0542 | 0.059 | 0.0647 | 0.0706 | 0.0773 | 0.0845
c1 = 0.008333 | 0.0513 | 0.0554 | 0.061 | 0.0666 | 0.0728 | 0.0798 | 0.0874
c1 = 0.008791 | 0.0523 | 0.0568 | 0.0622 | 0.0685 | 0.0749 | 0.0822 | 0.09
c1 = 0.009239 | 0.0537 | 0.0582 | 0.0641 | 0.0703 | 0.077 | 0.0845 | 0.0926
c1 = 0.009677 | 0.0548 | 0.0598 | 0.0652 | 0.0721 | 0.0789 | 0.0867 | 0.0952
c1 = 0.01011 | 0.0556 | 0.061 | 0.0671 | 0.0737 | 0.0804 | 0.0889 | 0.0976
c1 = 0.01053 | 0.0572 | 0.0623 | 0.0686 | 0.0757 | 0.0829 | 0.0913 | 0.1003
c1 = 0.01094 | 0.0583 | 0.0636 | 0.0701 | 0.0774 | 0.0849 | 0.0935 | 0.1028
c1 = 0.01134 | 0.0594 | 0.0649 | 0.0716 | 0.0791 | 0.0868 | 0.0957 | 0.105
c1 = 0.01174 | 0.0605 | 0.0661 | 0.073 | 0.0807 | 0.0887 | 0.0978 | 0.108
c1 = 0.01212 | 0.0615 | 0.0673 | 0.0744 | 0.0824 | 0.0905 | 0.0998 | 0.11
c1 = 0.0125 | 0.0626 | 0.0685 | 0.0758 | 0.084 | 0.0923 | 0.1019 | 0.1122
